Experimental data taken from patent US20030099960A1, “Compositions and methods for optimizing UGT2B7 substrate dosings and for predicting UGT2B7 substrate toxicity” (The University of Chicago, priority 2001, published 2003).

How the values were obtained:
human UGT2B15 = molecular target: T1, human UGT2B15 (Homo sapiens, UniProt P54855); assay: Epirubicin glucuronidation in microsomes expressing UGT2B15; details: Nd = not detectable
T1 sequence (P54855 24-530): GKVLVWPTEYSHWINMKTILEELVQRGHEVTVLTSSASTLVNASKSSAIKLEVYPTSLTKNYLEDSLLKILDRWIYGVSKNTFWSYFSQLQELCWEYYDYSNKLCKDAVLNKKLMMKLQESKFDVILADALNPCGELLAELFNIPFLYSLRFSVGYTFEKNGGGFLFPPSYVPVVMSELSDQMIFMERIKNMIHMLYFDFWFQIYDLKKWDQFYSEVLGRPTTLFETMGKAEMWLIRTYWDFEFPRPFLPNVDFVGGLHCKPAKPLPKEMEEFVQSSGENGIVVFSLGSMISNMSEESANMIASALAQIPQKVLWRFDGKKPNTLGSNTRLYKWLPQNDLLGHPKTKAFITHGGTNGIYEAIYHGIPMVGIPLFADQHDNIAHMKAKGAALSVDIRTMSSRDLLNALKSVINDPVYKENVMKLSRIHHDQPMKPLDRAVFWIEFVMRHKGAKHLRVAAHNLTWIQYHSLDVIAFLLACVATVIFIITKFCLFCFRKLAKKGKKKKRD
Source text: (§1) Microsomes from human lymphoblasts and insect cells (BTI-TN-5B1-4) both transfected with a vector containing human UGT1A1, UGT1A3, UGT1A4, UGT1A6, UGT1A9 and UGT2B15 complementary DNA (cDNA) and their negative control (microsomes from cells infected with wild-type vector) were obtained from Gentest Corp. (Woburn, Mass.). Microsomes from insect cells (SF-9) infected with a baculovirus containing human cDNA for UGT2B7 and their negative control were purchased from PanVera (Madison, Wis.).
(§2) For this purpose, dried samples were reconstituted with 0.2 ml of sodium phosphate buffer (0.1 M, pH 6.8) containing 1000 U of β-glucuronidase (type VII, from E. coli) and incubated overnight at 37° C. Reference samples containing no enzyme were treated identically.
(§3) The mobile phase consisted of 30% acetonitrile and 70% 50 mM sodium dihydrogen phosphate (pH adjusted to 4 with 8.5% ortho-phosphoric acid).

human UGT1A1 = molecular target: T2, human UGT1A1 (Homo sapiens, UniProt P22309); assay: Epirubicin glucuronidation in microsomes expressing UGT1A1; details: Nd = not detectable
T2 sequence (P22309 26-533): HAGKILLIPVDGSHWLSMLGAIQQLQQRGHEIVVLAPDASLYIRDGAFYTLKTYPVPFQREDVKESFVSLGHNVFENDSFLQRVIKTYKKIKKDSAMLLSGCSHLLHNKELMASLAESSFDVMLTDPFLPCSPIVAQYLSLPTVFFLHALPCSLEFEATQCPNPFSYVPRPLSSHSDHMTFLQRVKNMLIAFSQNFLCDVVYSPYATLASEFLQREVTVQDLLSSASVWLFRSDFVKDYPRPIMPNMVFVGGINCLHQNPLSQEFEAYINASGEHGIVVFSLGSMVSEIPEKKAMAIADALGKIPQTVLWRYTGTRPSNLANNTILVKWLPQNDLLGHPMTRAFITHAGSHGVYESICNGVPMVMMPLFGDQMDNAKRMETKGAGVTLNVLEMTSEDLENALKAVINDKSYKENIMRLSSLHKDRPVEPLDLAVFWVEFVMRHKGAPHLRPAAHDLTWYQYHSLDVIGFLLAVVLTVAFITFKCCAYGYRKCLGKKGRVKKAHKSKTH
Source text: as §1, §2, §3

human UGT1A3 = molecular target: T3, human UGT1A3 (Homo sapiens, UniProt P35503); assay: Epirubicin glucuronidation in microsomes expressing UGT1A3; details: Nd = not detectable
T3 sequence (P35503 29-534): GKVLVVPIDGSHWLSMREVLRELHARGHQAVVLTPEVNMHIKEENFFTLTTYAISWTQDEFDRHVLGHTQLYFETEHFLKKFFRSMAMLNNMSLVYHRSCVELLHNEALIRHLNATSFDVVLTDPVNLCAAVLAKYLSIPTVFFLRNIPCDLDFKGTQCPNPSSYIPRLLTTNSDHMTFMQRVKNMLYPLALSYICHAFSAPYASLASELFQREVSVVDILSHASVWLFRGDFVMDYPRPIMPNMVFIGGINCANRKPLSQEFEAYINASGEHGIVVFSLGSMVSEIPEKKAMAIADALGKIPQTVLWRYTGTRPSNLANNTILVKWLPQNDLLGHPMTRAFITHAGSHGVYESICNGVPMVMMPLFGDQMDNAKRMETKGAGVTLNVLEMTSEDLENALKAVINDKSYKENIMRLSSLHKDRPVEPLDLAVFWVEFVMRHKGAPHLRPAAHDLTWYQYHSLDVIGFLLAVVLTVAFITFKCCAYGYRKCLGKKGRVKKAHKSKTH
Source text: as §1, §2, §3

human UGT1A4 = molecular target: T4, human UGT1A4 (Homo sapiens, UniProt P22310); assay: Epirubicin glucuronidation in microsomes expressing UGT1A4; details: Nd = not detectable
T4 sequence (P22310 29-534): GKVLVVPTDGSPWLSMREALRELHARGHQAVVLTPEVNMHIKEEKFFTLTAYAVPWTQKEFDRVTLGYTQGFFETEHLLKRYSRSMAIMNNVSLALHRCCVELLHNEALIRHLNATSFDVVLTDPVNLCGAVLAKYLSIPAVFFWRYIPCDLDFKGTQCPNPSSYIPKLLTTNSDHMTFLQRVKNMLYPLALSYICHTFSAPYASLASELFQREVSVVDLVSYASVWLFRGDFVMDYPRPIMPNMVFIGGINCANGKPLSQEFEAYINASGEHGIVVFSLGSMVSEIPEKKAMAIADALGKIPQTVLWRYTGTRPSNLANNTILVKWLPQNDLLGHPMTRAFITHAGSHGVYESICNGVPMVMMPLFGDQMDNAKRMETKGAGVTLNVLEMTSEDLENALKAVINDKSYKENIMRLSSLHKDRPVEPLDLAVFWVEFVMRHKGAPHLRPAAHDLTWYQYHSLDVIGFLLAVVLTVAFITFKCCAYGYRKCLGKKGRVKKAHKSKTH
Source text: as §1, §2, §3

human UGT1A6 = molecular target: T5, human UGT1A6 (Homo sapiens, UniProt P19224); assay: Epirubicin glucuronidation in microsomes expressing UGT1A6; details: Nd = not detectable
T5 sequence (P19224 27-532): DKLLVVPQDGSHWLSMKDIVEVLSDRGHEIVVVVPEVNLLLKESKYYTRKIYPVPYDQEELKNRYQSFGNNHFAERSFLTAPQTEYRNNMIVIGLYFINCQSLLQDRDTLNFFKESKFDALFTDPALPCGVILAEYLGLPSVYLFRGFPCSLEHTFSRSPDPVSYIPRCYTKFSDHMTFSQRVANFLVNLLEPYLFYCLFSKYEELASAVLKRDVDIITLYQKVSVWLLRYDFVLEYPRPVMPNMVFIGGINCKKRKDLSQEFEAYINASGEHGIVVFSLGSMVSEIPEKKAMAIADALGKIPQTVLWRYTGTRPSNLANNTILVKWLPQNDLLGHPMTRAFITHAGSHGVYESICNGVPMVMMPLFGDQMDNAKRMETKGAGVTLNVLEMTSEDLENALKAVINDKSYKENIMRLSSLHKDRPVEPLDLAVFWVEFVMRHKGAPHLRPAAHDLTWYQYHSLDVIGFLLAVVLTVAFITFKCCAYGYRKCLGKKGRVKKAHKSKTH
Source text: as §1, §2, §3

human UGT1A9 = molecular target: T6, human UGT1A9 (Homo sapiens, UniProt O60656); assay: Epirubicin glucuronidation in microsomes expressing UGT1A9; details: Nd = not detectable
T6 sequence (O60656 26-530): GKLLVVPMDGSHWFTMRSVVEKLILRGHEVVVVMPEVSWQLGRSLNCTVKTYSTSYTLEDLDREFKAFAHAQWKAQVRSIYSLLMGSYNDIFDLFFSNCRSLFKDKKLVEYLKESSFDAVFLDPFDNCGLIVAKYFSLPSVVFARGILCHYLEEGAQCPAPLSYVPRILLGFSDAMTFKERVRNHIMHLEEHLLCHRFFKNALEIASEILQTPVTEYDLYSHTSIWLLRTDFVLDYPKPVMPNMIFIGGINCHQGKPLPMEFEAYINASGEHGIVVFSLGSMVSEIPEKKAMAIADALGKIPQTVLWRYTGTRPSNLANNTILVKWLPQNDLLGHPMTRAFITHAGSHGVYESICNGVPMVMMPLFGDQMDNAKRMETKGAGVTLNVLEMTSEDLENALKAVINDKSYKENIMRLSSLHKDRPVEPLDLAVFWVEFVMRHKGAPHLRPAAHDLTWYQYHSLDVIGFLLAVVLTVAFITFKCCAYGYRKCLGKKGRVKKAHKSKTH
Source text: as §1, §2, §3

[1] = cited from earlier work

For `COc1cccc2c1C(=O)c1c(O)c3c(c(O)c1C2=O)C[C@@](O)(C(=O)CO)C[C@@H]3O[C@H]1C[C@H](N)[C@@H](O)[C@H](C)O1` [Epirubicin, 4′-epi-doxorubicin], the “Formation rate of epirubicin glucuronide” value (human UGT2B15) was “No epirubicin glucuronidating activity”, the “Formation rate of epirubicin glucuronide” value (human UGT1A1) was “No epirubicin glucuronidating activity” and the “Formation rate of epirubicin glucuronide” value (human UGT1A3) was “No epirubicin glucuronidating activity”. The “Formation rate of epirubicin glucuronide” value (human UGT1A4) was “No epirubicin glucuronidating activity”, the “Formation rate of epirubicin glucuronide” value (human UGT1A6) was “No epirubicin glucuronidating activity” and the “Formation rate of epirubicin glucuronide” value (human UGT1A9) was “No epirubicin glucuronidating activity”. The “Median half-life, first phase” value ([1]; 3-compartment model) was “about 3.2 minutes”, the “Median half-life, second phase” value ([1]; 3-compartment model) was roughly 1.2 h and the “Median half-life, third phase” value ([1]; 3-compartment model) was roughly 32 h. The “Fraction excreted in the urine” value ([1]; elimination primarily biliary) was “less than 15%” and the Total plasma clearance ([1]; human, in vivo) was “about 46 L/h/m^2”.
